# Where two headings read alike, the source gives them in different places.
# Legend:
# HEK293F cells [1] = test: Transient gene expression in HEK293F cells: cell specific productivity of the expressed antibody; format: cell-based, human
# Protocol: HEK293F cells were cultivated in F17 medium (Life Technologies) in shaker flasks at 36.5° C., 7.0% CO2 and 80% humidity in a shaker incubator (Kuhner, Mytron). Cells were split every three to four days and were cultivated no longer than five weeks. To avoid overgrowth and to keep them in the exponential phase of growth, viable cell densities (VCD) never exceeded 60*10^5 cells/mL.
# (§1) Transient gene expression is a 5-7 days lasting procedure. The standard operating procedure of this expression system is applicable to shaker flasks with various volumes of cell culture ranging from 80 mL to 2 L. First, half of the cell culture volume is seeded at a viable cell density (VCD) of 8*10^5 cells/mL. After two days of cultivation, cells are split to a VCD of about 12*10^5 cells/mL. On the next day, cells are transfected with a polyethylene imine (PEI)-based transfection reagent at a VCD between 20*10^5 cells/mL and 25*10^5 cells/mL. 3 hours after transfection, the production enhancer (if any) is added. 24 h after transfection, a feeding solution and a glucose bolus is supplemented to avoid the limitation of nutrients. Depending on cell viability, which should not decrease below 50%, the supernatant is harvested five to seven days post transfection and subjected to antibody purification.
# (§2) To compare transient gene expression rates always the same plasmids encoding for one distinct antibody were co-transfected.
# (§3) To co-transfect two plasmids equimolarily, the ratio of the base pair number of one plasmid to the total base pair number was calculated and multiplied with the total amount of DNA (0.5 mg/L). Plasmid one has a size of 10530 bp and plasmid two has a size of 7184 bp and were solved in water to a final concentration of 1 mg/mL. For transfection of one liter cell culture, 297 μL of plasmid one and 203 μl of plasmid two were dissolved in 40 mL phosphate buffered saline (PBS) at room temperature. 1.25 mL JetPEI® solution was added and the solution was mixed well. After incubation for 10-15 min., the mixture was added to the cells. The cells were transfected in a batch containing the whole cell culture necessary for every experiment to avoid variance arising from different transfection efficiencies.
# (§4) 80 mL of the transfected cell culture batch was added to a 125 ml shaker flask. For every experiment, two or three 125 mL shaker flasks were used as biological replicates and treated the same way. Three hours after transfection, cells were split into 125 mL shaker flasks and the cellular treatments with small molecules or ligands were started. Basal protein expression was determined by untreated control samples. To compare samples with the standard operating procedure, cells were also treated with VPA to a final concentration of 4 mM or 3 mM. VPA and its analogues were dissolved in double distilled water. […] Tumor necrosis factor (TNF) alpha was reconstituted with PBS supplemented with 0.1% BSA. Flagellin was dissolved in sterile double distilled water. The applied molecules were not added to the cultivation directly, but diluted in 16 mL medium pre-warmed to 36.5° C. and added to the cultivation thereafter.
# (§5) 24 h after transfection a feeding solution at 36.5° C. and 3 mg/mL glucose were added to the cultivation.
# (§6) To determine cell viability and viable cell density (VCD) 1 mL cultivation medium (cell suspension) was transferred into a Cedex low fouling sample cup. The cup was placed into a Vicell instrument (Beckman Coulter). The instrument mixes cells with trypan blue to stain dead cells. After analysis of 50 images VCD was calculated and viability was determined by calculation of the percentage of viable cell number in relation to the total cell number.
# (§7) Total concentration of the transiently expressed antibody was determined by a turbidimetric test. One mL cell suspension was transferred into an Eppendorf cup and centrifuged for 10 min. at 10,000 rpm (9,300 g).
# HEK293F cells [2] = test: Transient gene expression in HEK293F cells: IgG concentration / titer (turbidimetric test); format: cell-based, human; details: none=100; for relative IgG concentration: 3 mM, N=3; for relative titer: N=2
# Protocol: as §1, §2, §3, §4, §5
# as §7, with “g). The supernatant was transferred into a new cup and subjected to Cobas Integra 400 plus (Roche) analysis. With comparison to internal standard the absolute concentration was calculated.” for “g).”
# HDAC [3] = test: in situ HDAC activity fluorimetric assay in HEK293F cells; format: cell-based, human
# Protocol: HDAC activity was determined by the in situ HDAC activity fluorimetric assay kit (Biovision) according to the manufacturer's instructions. HEK293F cells were suspended in F17 medium (Life Technologies) to a cell density of 5*10^5 cells/mL. One hundred micro liter culture was pipetted per well into a black ELISA plate. The plate was centrifuged at 1000 g for 5 min. The supernatant was discarded and the cells were resuspended in a reaction mix containing F17 medium, 1% HDAC substrate and the molecule tested towards HDAC inhibitory activity. 10 μM Trichostatin A was used as a positive control and the basal HDAC activity was determined by re-suspending the cells in F17 medium with 1% HDAC substrate. Furthermore, cells were resuspended in F17 medium without HDAC substrate as a background control. The HDAC activity assay was performed in triplicates for every sample as well as every control. The 96-well plate was incubated at 36.5° C., 80% humidity and 7% CO2 for one hour. During this time, the active HDACs deacetylate the HDAC substrate what releases the quenched fluorescent signal of the substrate. After incubation the fluorescent signal was analyzed by the infinite fluorescence plate reader (TECAN). The fluorescence signal of the samples and controls was normalized by subtracting the fluorescence signal of the background control. It is assumed that the fluorescent signal arising from deacetylation of the substrate directly correlates with HDAC activity.
# HEK293F cells [4] = format: cell-based; details: human, 11 mM
# Protocol: as §6
# HDAC [5] = details: description from the literature; cited from earlier work
smiles,measurement,setting,value
"CC/C=C(\C)C(=O)O [2M2P, trans-2-methyl 2-pentenoic acid]",cell specific productivity with BAY11-7082 addition compared to the single treatment,HEK293F cells [1]; 15 μM BAY11-7082 added 24 h after transfection,No reduction
same,protein expression yields compared to the negative control,"HEK293F cells [1]; 3 mM, in words",clearly increased
same,specific productivity after 96 hours,"HEK293F cells [1]; 3 mM, single treatment, none 2.01, N=3",2.40 pg/cell/day
same,activity at 3000 µM,"HEK293F cells [1]; Homo sapiens, HEK293F, 3 mM, 2M2P/Quisinostat combination study, none=100, N=3, read-out: relative cell specific productivity",169%
same,activity at 3000 µM,"HEK293F cells [1]; Homo sapiens, HEK293F, 3 mM, VPA/2M2P combination study, none=100, N=3, read-out: relative cell specific productivity",169%
same,activity at 3000 µM,"HEK293F cells [1]; Homo sapiens, HEK293F, 3 mM, none=100, N=3, FIG. 6A, read-out: relative cell specific productivity",131%
same,activity at 3000 µM,"HEK293F cells [1]; Homo sapiens, HEK293F, 3 mM, none=100, N=3, FIG. 9A, read-out: relative cell specific productivity",131%
same,activity at 3000 µM,"HEK293F cells [1]; Homo sapiens, HEK293F, 3 mM, single treatment, none=100, N=3, read-out: relative cell specific productivity",144%
same,activity at 3000 µM,"HEK293F cells [1]; Homo sapiens, HEK293F, 3 mM, transfected control=100, N=3, FIG. 3B, read-out: relative cell specific productivity",191%
same,activity at 2000 µM,"HEK293F cells [1]; Homo sapiens, HEK293F, employed concentration 2 mM, none=100, N=2, FIG. 4, read-out: relative cell specific productivity",123%
same,activity at 3000 µM,"HEK293F cells [1]; Homo sapiens, HEK293F, employed concentration 3 mM, none=100, N=2, FIG. 4, read-out: relative cell specific productivity",196%
same,Mean cell specific productivity,"HEK293F cells [1]; conc. 3 mM, untreated 1.71",5.4 (3 mM) pg/cell/24 h
same,relative IgG concentration,HEK293F cells [2]; 2M2P/Quisinostat combination study,146%
same,relative IgG concentration,HEK293F cells [2]; VPA/2M2P combination study,146%
same,relative IgG concentration,HEK293F cells [2]; FIG. 6B,128%
same,relative IgG concentration,HEK293F cells [2]; FIG. 9B,128%
same,relative titer,HEK293F cells [2]; 2M2P concentration 3 mM,165%
same,relative titer,HEK293F cells [2]; 2M2P concentration 6 mM,257%
same,relative titer,HEK293F cells [2]; 2M2P concentration 7 mM,258%
same,relative titer,HEK293F cells [2]; 2M2P concentration 8 mM,172%
same,relative titer,HEK293F cells [2]; 2M2P concentration 9 mM,120%
same,relative titer,HEK293F cells [2]; 2M2P concentration 10 mM,42%
same,relative titer,HEK293F cells [2]; 2M2P concentration 11 mM,0%
same,HDACi,"HDAC [3]; 3 mM, N=3, FIG. 3A",9.4%
same,HDAC inhibition,"HDAC [3]; yes/no, summary table",no
same,toxicity (remark in titer cell),HEK293F cells [4],toxic
same,HDAC inhibitory activity,HDAC [5],very weak to no HDAC inhibitory activity

# — patent US10745731B2, “Recombinant production method” (Hoffmann-La Roche Inc., priority 2015, dated 2020)
